Experimental data as given in article PMC7180948, “New Insights into 4-Anilinoquinazolines as Inhibitors of Cardiac Troponin I–Interacting Kinase (TNNi3K)” (Molecules, 2020).

Assays:
Experiment in all cases: biochemical
Parameters in all cases: KINOMEscan competition binding panel (Eurofins DiscoverX), single concentration, percent inhibition
Conditions in all cases: read-out: 15 at 1 µM % inhibition
[1] = target: T1, CDC2L1 (Homo sapiens, UniProt P21127)
T1 construct: gene CDK11B
Procedure, shortened: (§1)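 KINOMEscan binding panel of >400 kinases, run by Eurofins DiscoverX, with compounds tested at a single concentration of 1 µM.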

[2] = target: NEK7 (Homo sapiens, UniProt Q8TDX7)
Sequence of NEK7 (Q8TDX7 whole entry): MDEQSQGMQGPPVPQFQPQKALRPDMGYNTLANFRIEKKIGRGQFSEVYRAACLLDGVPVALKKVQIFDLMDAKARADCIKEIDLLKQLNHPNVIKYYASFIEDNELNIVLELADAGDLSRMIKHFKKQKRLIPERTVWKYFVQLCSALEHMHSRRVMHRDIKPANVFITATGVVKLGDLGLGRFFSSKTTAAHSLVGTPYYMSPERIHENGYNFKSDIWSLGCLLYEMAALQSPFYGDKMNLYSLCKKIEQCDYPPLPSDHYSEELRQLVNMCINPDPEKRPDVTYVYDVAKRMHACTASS
Procedure, shortened: as §1

[3] = target: CDK8 (Homo sapiens, UniProt P49336)
Sequence of CDK8 (P49336 whole entry): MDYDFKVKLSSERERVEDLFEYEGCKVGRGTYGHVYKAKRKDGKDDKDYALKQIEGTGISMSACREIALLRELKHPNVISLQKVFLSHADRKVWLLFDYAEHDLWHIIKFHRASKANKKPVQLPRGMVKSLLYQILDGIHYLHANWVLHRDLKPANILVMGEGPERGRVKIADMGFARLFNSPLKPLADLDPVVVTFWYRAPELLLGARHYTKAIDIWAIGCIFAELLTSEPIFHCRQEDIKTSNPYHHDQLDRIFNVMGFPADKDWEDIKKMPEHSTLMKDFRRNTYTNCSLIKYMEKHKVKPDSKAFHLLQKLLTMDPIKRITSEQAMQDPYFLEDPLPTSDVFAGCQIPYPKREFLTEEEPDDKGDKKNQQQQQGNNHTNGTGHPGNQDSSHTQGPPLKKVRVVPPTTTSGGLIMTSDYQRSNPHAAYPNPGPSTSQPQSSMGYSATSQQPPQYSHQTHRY
Procedure, shortened: as §1

[4] = target: HUNK (Homo sapiens, UniProt P57058)
Procedure, shortened: as §1

[5] = target: SRPK1 (Homo sapiens, UniProt Q96SB4)
Procedure, shortened: as §1

[6] = target: T2, PRKR (Homo sapiens, UniProt P19525)
T2 construct: gene EIF2AK2
Procedure, shortened: as §1

[7] = target: EGFR (Homo sapiens, UniProt P00533)
Procedure, shortened: as §1

[8] = target: PIK3C2B (Homo sapiens, UniProt O00750)
Procedure, shortened: as §1

[9] = target: T3, CDK11 (Homo sapiens, UniProt Q9BWU1)
T3 construct: gene CDK19
Procedure, shortened: as §1

[10] = target: CAMKK1 (Homo sapiens, UniProt Q8N5S9)
Procedure, shortened: as §1

[11] = target: T4, ASK2 (Homo sapiens, UniProt O95382)
T4 construct: gene MAP3K6
Procedure, shortened: as §1

[12] = target: ITK (Homo sapiens, UniProt Q08881)
Procedure, shortened: as §1

[13] = target: T5, DMPK2 (Homo sapiens, UniProt Q6DT37)
T5 construct: gene CDC42BPG
Procedure, shortened: as §1

[14] = target: TAOK1 (Homo sapiens, UniProt Q7L7X3)
Procedure, shortened: as §1

[15] = target: CSF1R (Homo sapiens, UniProt P07333)
Sequence of CSF1R (P07333 whole entry): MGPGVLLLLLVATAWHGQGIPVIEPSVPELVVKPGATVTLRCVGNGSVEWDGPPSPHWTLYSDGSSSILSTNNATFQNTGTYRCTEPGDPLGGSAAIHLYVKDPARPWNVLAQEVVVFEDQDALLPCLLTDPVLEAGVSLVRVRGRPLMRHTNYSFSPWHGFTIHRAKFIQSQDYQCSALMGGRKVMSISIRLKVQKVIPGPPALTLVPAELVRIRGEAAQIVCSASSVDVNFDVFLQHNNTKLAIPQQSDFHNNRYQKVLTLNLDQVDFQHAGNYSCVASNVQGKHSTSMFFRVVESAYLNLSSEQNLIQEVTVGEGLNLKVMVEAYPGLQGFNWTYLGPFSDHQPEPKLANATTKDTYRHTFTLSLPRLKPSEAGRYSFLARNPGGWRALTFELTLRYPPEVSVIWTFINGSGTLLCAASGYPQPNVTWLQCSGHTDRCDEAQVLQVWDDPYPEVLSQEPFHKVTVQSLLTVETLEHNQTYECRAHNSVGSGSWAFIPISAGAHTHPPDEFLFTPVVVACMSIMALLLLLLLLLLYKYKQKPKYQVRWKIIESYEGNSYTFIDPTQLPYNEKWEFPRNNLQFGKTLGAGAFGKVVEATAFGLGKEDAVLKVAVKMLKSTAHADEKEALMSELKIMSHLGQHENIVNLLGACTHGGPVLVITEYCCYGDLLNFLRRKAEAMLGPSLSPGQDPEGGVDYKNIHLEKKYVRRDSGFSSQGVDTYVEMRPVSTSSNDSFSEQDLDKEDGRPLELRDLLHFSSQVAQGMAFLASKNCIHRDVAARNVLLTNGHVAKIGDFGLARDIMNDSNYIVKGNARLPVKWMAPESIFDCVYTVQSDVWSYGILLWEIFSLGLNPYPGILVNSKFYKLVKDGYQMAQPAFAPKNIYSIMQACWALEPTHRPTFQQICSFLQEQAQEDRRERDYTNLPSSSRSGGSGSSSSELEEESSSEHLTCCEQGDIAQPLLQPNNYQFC
Procedure, shortened: as §1

[16] = target: T6, TAK1 (Homo sapiens, UniProt O43318)
T6 construct: gene MAP3K7
Procedure, shortened: as §1

[17] = target: PIM1 (Homo sapiens, UniProt P11309)
Sequence of PIM1 (P11309 whole entry): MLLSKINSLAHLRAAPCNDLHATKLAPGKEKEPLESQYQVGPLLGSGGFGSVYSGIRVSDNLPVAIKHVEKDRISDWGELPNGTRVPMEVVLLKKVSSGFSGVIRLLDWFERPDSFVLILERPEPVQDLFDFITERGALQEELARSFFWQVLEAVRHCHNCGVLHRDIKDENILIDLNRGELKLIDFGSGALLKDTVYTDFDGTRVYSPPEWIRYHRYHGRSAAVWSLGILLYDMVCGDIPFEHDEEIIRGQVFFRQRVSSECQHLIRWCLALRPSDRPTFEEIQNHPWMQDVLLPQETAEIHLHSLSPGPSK
Procedure, shortened: as §1

[18] = target: INSRR (Homo sapiens, UniProt P14616)
Procedure, shortened: as §1

[19] = target: DMPK (Homo sapiens, UniProt Q09013)
Sequence of DMPK (Q09013 whole entry): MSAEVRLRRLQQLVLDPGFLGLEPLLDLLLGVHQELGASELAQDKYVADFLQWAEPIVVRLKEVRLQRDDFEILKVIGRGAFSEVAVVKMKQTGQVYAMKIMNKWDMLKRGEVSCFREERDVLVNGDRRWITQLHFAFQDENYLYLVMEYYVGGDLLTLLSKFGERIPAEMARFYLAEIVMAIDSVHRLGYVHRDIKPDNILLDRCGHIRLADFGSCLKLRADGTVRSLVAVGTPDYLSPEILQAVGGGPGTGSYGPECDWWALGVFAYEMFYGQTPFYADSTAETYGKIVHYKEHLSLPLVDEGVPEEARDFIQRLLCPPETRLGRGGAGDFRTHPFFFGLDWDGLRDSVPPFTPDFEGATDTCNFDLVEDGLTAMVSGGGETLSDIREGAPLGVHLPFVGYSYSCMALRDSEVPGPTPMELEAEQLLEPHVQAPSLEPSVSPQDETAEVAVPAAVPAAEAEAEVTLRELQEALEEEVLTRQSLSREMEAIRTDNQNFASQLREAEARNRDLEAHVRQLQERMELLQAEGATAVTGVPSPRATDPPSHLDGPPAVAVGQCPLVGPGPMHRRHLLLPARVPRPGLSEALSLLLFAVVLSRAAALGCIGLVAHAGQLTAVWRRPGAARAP
Procedure, shortened: as §1

[20] = target: T7, MEK2 (Homo sapiens, UniProt P36507)
T7 construct: gene MAP2K2
Procedure, shortened: as §1

[21] = target: IGF1R (Homo sapiens, UniProt P08069)
Procedure, shortened: as §1

[22] = target: MAP3K3 (Homo sapiens, UniProt Q99759)
Procedure, shortened: as §1

[23] = target: CSNK1E (Homo sapiens, UniProt P49674)
Sequence of CSNK1E (P49674 whole entry): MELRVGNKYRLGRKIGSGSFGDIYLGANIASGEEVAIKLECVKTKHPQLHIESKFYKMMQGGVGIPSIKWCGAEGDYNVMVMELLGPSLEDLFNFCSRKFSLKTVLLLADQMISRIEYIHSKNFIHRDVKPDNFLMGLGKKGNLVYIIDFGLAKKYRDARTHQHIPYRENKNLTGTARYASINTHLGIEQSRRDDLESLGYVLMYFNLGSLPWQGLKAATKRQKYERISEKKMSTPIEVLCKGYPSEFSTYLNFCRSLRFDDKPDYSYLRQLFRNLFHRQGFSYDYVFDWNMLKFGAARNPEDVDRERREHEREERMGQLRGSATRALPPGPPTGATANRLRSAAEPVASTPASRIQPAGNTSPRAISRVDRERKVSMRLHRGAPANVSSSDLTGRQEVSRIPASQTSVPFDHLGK
Procedure, shortened: as §1

[24] = target: PIK3CA(Q546K) (Homo sapiens, UniProt P42336, Q546K)
Sequence of PIK3CA(Q546K) (P42336 whole entry Q546K): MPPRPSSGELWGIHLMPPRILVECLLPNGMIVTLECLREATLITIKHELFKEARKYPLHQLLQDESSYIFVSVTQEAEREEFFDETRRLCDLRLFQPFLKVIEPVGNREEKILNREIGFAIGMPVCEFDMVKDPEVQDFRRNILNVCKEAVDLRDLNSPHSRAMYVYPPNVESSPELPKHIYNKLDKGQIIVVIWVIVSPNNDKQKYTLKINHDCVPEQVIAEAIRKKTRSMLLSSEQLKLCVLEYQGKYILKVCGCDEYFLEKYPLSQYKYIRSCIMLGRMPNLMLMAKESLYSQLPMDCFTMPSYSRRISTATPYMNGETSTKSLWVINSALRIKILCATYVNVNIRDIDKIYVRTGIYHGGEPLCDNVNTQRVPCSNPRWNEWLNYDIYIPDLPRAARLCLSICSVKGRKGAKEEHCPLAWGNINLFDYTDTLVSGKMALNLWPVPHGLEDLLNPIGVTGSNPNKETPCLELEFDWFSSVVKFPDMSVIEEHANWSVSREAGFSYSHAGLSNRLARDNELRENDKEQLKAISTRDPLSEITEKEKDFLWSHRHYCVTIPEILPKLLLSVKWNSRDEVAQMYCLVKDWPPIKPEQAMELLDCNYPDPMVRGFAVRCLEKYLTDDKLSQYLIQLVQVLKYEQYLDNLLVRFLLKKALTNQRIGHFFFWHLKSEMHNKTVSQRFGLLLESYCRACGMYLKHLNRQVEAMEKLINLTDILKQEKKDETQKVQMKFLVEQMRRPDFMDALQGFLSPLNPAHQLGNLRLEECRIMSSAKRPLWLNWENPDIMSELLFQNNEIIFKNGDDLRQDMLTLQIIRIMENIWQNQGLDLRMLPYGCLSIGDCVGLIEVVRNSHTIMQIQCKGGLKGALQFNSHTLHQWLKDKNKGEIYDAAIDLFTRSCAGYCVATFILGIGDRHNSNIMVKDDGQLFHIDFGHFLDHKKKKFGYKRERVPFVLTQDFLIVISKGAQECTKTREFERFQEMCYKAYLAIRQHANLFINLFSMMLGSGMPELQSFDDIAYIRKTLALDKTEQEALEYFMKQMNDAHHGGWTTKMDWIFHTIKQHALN
Procedure, shortened: as §1

[25] = target: CDKL3 (Homo sapiens, UniProt Q8IVW4)
Sequence of CDKL3 (Q8IVW4 whole entry): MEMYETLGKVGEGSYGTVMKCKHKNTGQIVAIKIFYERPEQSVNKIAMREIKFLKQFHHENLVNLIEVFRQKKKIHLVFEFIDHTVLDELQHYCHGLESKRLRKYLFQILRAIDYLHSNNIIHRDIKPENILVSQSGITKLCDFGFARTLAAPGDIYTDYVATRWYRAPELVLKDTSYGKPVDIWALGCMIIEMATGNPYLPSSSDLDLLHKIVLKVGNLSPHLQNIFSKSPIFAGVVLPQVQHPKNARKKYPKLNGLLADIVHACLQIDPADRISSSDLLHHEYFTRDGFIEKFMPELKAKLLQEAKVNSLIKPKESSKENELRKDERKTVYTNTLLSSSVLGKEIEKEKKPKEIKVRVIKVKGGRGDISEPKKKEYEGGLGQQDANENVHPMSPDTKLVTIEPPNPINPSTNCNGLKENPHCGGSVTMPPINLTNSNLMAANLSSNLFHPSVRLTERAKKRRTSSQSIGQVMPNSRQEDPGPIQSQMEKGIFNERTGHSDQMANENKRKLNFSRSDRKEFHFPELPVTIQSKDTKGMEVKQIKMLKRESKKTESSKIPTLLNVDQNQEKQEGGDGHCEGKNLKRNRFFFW
Procedure, shortened: as §1

Compound: CNS(=O)(=O)c1ccc(N(C)C)c(Nc2nc(C)nc3cc(OC)c(OC)cc23)c1 [compound 15, 3-((6,7-dimethoxy-2-methylquinazolin-4-yl)amino)-4-(dimethylamino)-N-methylbenzenesulfonamide]
- inhibition at 1 µM [1]: 7%
- inhibition at 1 µM [2]: 2%
- inhibition at 1 µM [3]: 0%
- inhibition at 1 µM [4]: 0%
- inhibition at 1 µM [5]: 0%
- inhibition at 1 µM [6]: 7%
- inhibition at 1 µM [7]: 0%
- inhibition at 1 µM [8]: 71%
- inhibition at 1 µM [9]: 13%
- inhibition at 1 µM [10]: 2%
- inhibition at 1 µM [11]: 0%
- inhibition at 1 µM [12]: 0%
- inhibition at 1 µM [13]: 5%
- inhibition at 1 µM [14]: 15%
- inhibition at 1 µM [15]: 0%
- inhibition at 1 µM [16]: 24%
- inhibition at 1 µM [17]: 2%
- inhibition at 1 µM [18]: 22%
- inhibition at 1 µM [19]: 3%
- inhibition at 1 µM [20]: 10%
- inhibition at 1 µM [21]: 0%
- inhibition at 1 µM [22]: 44%
- inhibition at 1 µM [23]: 0%
- inhibition at 1 µM [24]: 37%
- inhibition at 1 µM [25]: 23%
